Results on seven compounds are retold here after patent US20110237566A1, “Therapeutic Macrolide Compounds and Their Use” (MERLION PHARMACEUTICALS PTE LTD, priority 2008, published 2011).

Data set [1] has as its system PC3 human prostate carcinoma cell. The data set can be described thus: Growth inhibition (cytotoxicity), PC3A assay, Cell Titer Glo. It counts as cell-based. The settings on record: PC-3, 72 h, PC3 cells, 72 hour incubation. The procedure: (§1) The cytotoxicity of each of the MC compounds as described herein was evaluated in the following cell types: A549 human alveolar epithelial cell, PC3 human prostate carcinoma cell, COLO205 human colon adenocarcinoma cell, HEPG2 human hepatoma, OVCAR3 human ovary adenocarcinoma cell, and HL60 human acute myelocytic leukemia (AML) cell.
(§2) A549, PC3, COLO205 and HEPG2 cells were cultured in DMEM (Invitrogen Corporation) with 10% fetal bovine serum, whereas OVCAR3 and HL60 were cultured in the same medium but with 20% fetal bovine serum. For cytotoxocoty measurements the cells were seeded in 96 or 384 well tissue culture treated microtitre plates overnight. Compounds were diluted in appropriate buffers and added to the cells the next day. Following a further 72 hour incubation, cell viability was determined using Cell Titer Glo (Promega Corporation) according to the manufacturers' instructions, and the luminescence measured in Luminoskan Ascent (Thermo Fisher Scientific Inc.).
(In general: ATP-based viability assays read luminescence as a measure of living cells.)

In data set [2] the test system is COLO205 human colon adenocarcinoma cell. The data set can be described thus: Growth inhibition (cytotoxicity), COLO205 assay, Cell Titer Glo. As to conditions: COLO 205, 72 h, COLO205 cells, 72 hour incubation. It counts as cell-based. The procedure:
as §1, §2

The test system of data set [3] is OVCAR3 human ovary adenocarcinoma cell. Description: Growth inhibition (cytotoxicity), OVCAR3 assay, Cell Titer Glo. As to conditions: OVCAR3 cells, 72 hour incubation. It counts as cell-based. The method, then:
as §1, §2

For data set [4], the system named is HL60 human acute myelocytic leukemia (AML) cell. The data set can be described thus: Growth inhibition (cytotoxicity), HL60A assay, Cell Titer Glo. As to conditions: HL-60, 72 h, HL60 cells, 72 hour incubation. It counts as cell-based. The method, then: as §1, §2
The nature of data set [5]: Microsomal stability assay. It counts as in vitro ADME. The settings on record: human, human liver microsomes, pH 7.4, human liver microsomes, 50 μm, 37° C.; read-out: T1/2, 50 μm microsomal stability assay. The procedure:
50 μL test sample (50 mM), 25 μL human liver microsomes (20 mg/ml, BD Gentest, catalog no. 452161), 281 μL potassium phosphate buffer (100 mM, pH 7.4), 5 μL NaDPH regenerating system, solution B (BD Biosciences, catalog no. 451200), and 114 μL of water were pre-incubated for 5 min at 37° C. The reaction was initiated by the addition of 25 μL NaDPH regenerating system, solution A (BD Biosciences, catalog no. 451220). After an incubation period of 0, 15, 30, and 60 min at 37° C., 100 μL of the reaction mixture was transferred to an eppendorf tube, followed by addition of 100 μL chilled acetonitrile to quench the reaction. The sample was then centrifuged at 14,000 rpm for 5 min. The supernatant was submitted for LCMS analysis.
Background: Liver microsomes are a subcellular fraction often used to study metabolism.

Data set [6] has as its system A549 human alveolar epithelial cell. The data set can be described thus: Growth inhibition (cytotoxicity), A549 assay, Cell Titer Glo. It counts as cell-based. The settings on record: A549, 72 h, A549 cells, 72 hour incubation. The method, then:
as §1, §2

For data set [7], the system named is HEPG2 human hepatoma. Description: Growth inhibition (cytotoxicity), HEPG2A assay, Cell Titer Glo. It counts as cell-based. As to conditions: HEPG2 cells, 72 hour incubation. The method, then: as §1, §2
A short description of data set [8]: Stability determination at PBS pH7.2. It counts as physicochemical. As to conditions: PBS pH 7.2, pH 7.2, PBS pH7.2, 37° C.; read-out: T1/2, PBS buffer stability assay. The procedure: Around 0.1 mg of the dried sample was placed in a 2-mL vial, added with 1 mL of PBS pH7.2 and then mixed using a Vortex mixer. The mixture was filtered through a 4 mm Nylon filter with 0.2 μm pore size and the filtrate collected in an hplc vial. The vial was placed in an hplc autosampler maintained at 37° C. just before injection (time=0 h). The stability of the sample was calculated by determining the amount left in solution at specific time intervals. This study was carried out in three trials with the buffer solution as a blank.

Each structure is given as a SMILES string.

One may read the IC50 as the concentration that gives 50% inhibition. The low end stands for greater potency in that assay, the high end for weaker potency in that assay. In the case of `CC[C@H](OC)[C@@H](C)[C@H]1O[C@@H]1C(NCc1ccc(F)cc1)C(C)(O)/C=C/C=C(\C)C1OC(=O)C[C@H](O)CC[C@@](C)(O)[C@@H](OC(C)=O)/C=C/[C@@H]1C.O=CO` (single isomer, unassigned) [MC-006c], the IC50 was ≤ 100 nM in data set [1]; ≤ 100 nM in data set [2]; ≤ 100 nM in data set [3] (Homo sapiens, OVCAR-3, 72 h); ≤ 100 nM in data set [4]. The half-life at 50 μM in data set [5] is > 30 min.
Consider `CC[C@H](OC)[C@@H](C)[C@H]1O[C@@H]1C(NCc1ccncc1)C(C)(O)/C=C/C=C(\C)C1OC(=O)C[C@H](O)CC[C@@](C)(O)[C@@H](OC(C)=O)/C=C/[C@@H]1C` (single isomer, unassigned) [MC-007b], for which the IC50 in data set [6] was ≤ 1000 nM; in data set [4], ≤ 100 nM.
With `CC[C@H](OC)[C@@H](C)[C@H]1O[C@@H]1C(NCc1ccc(Cl)cc1)C(C)(O)/C=C/C=C(\C)C1OC(=O)C[C@H](O)CC[C@@](C)(O)[C@@H](OC(C)=O)/C=C/[C@@H]1C` (single isomer, unassigned) [MC-016a], the IC50 is ≤ 100 nM in data set [1]; ≤ 100 nM in data set [7] (Homo sapiens, HepG2, 72 h); ≤ 100 nM in data set [2]; ≤ 100 nM in data set [3] (Homo sapiens, OVCAR-3, 72 h); ≤ 100 nM in data set [4].
With `CC[C@H](OC)[C@@H](C)[C@H]1O[C@@H]1C(NCc1ccc(C)c(F)c1)C(C)(O)/C=C/C=C(\C)[C@H]1OC(=O)C[C@H](O)CC[C@@](C)(O)[C@@H](OC(C)=O)/C=C/[C@@H]1C.O=CO` (stereo in doubt) [MC-031], the 50% inhibitory concentration (IC50) in data set [1] is ≤ 100 nM; in data set [3] (Homo sapiens, OVCAR-3, 72 h), ≤ 100 nM. Further, the half-life at 0.1 mg/mL in data set [8] was > 30 min. Besides, the half-life at 50 μM in data set [5] was > 30 min.
As to `CC[C@H](OC)[C@@H](C)[C@H]1O[C@@H]1C(NCc1ccc(OC)cc1)C(C)(O)/C=C/C=C(\C)C1OC(=O)C[C@H](O)CC[C@@](C)(O)[C@@H](OC(C)=O)/C=C/[C@@H]1C` (stereo partly shown) [MC-005], the IC50 in data set [7] is 57 nM; in data set [7] (Homo sapiens, HepG2, 72 h) it was ≤ 100 nM; in data set [3] (Homo sapiens, OVCAR-3, 72 h), ≤ 100 nM; in data set [3], 61 nM. In data set [5], the half-life at 50 μM was determined as 20 min.
In the case of `CC[C@H](OC)[C@@H](C)[C@H]1O[C@@H]1C(NCc1ccncc1)C(C)(O)/C=C/C=C(\C)C1OC(=O)C[C@H](O)CC[C@@](C)(O)[C@@H](OC(C)=O)/C=C/[C@@H]1C` (stereo partly shown) [MC-007c], the IC50 in data set [6] was ≤ 1000 nM; in data set [2] it was ≤ 100 nM; in data set [4] it was ≤ 100 nM.
For the compound `CC[C@H](OC)[C@@H](C)[C@H]1O[C@@H]1C(NCc1ccc(Cl)c(Cl)c1)C(C)(O)/C=C/C=C(\C)C1OC(=O)C[C@H](O)CC[C@@](C)(O)[C@@H](OC(C)=O)/C=C/[C@@H]1C` (stereo partly shown) [MC-059], the IC50 was ≤ 100 nM in data set [1]; ≤ 100 nM in data set [7] (Homo sapiens, HepG2, 72 h); ≤ 100 nM in data set [2]; ≤ 100 nM in data set [3] (Homo sapiens, OVCAR-3, 72 h).
